≈ marks a conversion by molar mass, not a printed value.

Experimental findings from ChEMBL document CHEMBL1139232, “Isothiazoloquinolones with enhanced antistaphylococcal activities against multidrug-resistant strains: effects of structural modifications at the 6-, 7-, and 8-positions” (J Med Chem, 2007) are described below.

Series [1] relates to Staphylococcus aureus. As to the kind of experiment: Antibacterial activity against methicillin-resistant Staphylococcus aureus. The class given is functional.
Series [2] in a line: Cytotoxicity against human Hep2 cell line after 72 hrs. It counts as cell-based, HEp-2. The conditions noted are these: Hep2 cells.
The test system of series [3] is Staphylococcus aureus. As to the kind of experiment: Antibacterial activity against Staphylococcus aureus. The class given is functional.
Series [4] can be described thus: Inhibition of Staphylococcus aureus topoisomerase 4 by decatenation assay.
A further series has as its target DNA gyrase (Staphylococcus aureus, UniProt P0A0K8+P20831). Kind of series: Inhibition of Staphylococcus aureus DNA gyrase by supercoiling assay. The class given is protein-complex assay.
Series [5] concerns Staphylococcus aureus. As to the kind of experiment: Antibacterial activity against methicillin-sensitive Staphylococcus aureus. It counts as functional.
Series [6] concerns Staphylococcus aureus. As to the kind of experiment: Antibacterial activity against fluoroquinolone-resistant Staphylococcus aureus 273/T/T/T. It counts as functional.
Series [7] in a line: Cytotoxicity against human HepG2 cells after 72 hrs. It counts as cell-based.
Another series relates to Hepatocyte. As to the kind of experiment: Cytotoxicity against rat hepatocytes after 48 hrs. It counts as functional.
For series [8], the target named is DNA topoisomerase 2-alpha (Homo sapiens) (UniProt P11388).
Sequence of DNA topoisomerase 2-alpha (Homo sapiens) (P11388 whole entry): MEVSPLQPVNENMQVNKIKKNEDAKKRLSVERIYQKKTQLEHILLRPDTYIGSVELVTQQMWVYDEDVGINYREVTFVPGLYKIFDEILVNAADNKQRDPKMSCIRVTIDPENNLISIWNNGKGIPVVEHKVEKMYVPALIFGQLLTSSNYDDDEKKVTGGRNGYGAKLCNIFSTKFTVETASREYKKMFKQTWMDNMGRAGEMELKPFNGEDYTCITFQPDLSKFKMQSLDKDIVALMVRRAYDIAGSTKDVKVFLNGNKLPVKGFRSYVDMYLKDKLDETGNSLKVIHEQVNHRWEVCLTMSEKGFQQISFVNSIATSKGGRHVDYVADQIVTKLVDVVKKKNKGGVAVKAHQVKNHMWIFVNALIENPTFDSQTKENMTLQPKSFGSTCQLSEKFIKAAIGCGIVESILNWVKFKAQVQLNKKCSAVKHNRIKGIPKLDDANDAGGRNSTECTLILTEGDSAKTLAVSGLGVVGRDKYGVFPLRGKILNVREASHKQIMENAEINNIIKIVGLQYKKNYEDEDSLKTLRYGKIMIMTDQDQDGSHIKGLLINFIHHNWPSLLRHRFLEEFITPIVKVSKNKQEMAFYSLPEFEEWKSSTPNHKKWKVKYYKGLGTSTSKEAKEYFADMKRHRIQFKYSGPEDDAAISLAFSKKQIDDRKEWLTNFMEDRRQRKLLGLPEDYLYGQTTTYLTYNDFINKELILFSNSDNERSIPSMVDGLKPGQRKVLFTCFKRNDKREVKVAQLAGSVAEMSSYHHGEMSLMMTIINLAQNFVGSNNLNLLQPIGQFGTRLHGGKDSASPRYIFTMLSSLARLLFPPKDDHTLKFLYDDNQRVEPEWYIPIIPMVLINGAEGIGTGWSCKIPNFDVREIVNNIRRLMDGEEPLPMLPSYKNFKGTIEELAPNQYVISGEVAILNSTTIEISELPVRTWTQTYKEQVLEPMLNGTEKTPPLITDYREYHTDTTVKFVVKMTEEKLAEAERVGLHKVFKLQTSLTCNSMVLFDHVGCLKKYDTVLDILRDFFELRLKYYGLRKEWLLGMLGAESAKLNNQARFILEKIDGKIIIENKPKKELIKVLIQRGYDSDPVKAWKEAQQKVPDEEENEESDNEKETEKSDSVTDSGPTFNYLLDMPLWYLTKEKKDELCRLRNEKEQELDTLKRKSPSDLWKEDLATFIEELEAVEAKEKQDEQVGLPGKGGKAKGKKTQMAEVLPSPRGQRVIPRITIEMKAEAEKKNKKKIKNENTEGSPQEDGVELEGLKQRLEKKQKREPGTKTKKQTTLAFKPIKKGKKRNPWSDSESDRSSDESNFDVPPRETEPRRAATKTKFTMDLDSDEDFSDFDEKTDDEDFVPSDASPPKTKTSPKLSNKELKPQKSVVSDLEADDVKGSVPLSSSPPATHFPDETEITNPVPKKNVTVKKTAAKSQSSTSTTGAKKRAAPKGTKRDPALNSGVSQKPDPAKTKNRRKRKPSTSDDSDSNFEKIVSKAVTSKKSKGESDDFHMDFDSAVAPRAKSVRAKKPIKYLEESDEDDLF
Series [9] relates to Staphylococcus aureus. Kind of series: Antibacterial activity against vancomycin-sensitive Staphylococcus aureus F988633. The class given is functional.
The test system of series [10] is Staphylococcus aureus. Kind of series: Antibacterial activity against Staphylococcus aureus ATCC 33591 infected in CD1 mouse at 20 mg/kg, sc. The conditions noted are these: route subcutaneous. It counts as functional.

Sequence of DNA gyrase (P0A0K8 whole entry): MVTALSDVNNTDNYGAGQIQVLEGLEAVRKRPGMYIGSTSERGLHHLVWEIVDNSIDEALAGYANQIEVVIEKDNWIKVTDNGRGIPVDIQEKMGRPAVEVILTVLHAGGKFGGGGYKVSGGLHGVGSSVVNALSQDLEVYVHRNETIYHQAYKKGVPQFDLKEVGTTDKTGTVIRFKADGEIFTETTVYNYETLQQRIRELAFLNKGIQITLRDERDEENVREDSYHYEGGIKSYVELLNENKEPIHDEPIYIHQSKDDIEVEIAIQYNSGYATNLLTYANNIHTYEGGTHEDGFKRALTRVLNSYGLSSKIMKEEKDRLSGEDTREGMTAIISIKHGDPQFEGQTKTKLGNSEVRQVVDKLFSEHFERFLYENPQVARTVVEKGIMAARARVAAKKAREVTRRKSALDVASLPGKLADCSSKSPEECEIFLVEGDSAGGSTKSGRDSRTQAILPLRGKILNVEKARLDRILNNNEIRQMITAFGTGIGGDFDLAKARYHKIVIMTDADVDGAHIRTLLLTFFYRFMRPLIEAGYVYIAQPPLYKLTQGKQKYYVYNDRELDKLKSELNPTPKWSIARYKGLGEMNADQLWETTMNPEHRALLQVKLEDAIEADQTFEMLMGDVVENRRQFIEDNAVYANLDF
Sequence of DNA gyrase (P20831 whole entry): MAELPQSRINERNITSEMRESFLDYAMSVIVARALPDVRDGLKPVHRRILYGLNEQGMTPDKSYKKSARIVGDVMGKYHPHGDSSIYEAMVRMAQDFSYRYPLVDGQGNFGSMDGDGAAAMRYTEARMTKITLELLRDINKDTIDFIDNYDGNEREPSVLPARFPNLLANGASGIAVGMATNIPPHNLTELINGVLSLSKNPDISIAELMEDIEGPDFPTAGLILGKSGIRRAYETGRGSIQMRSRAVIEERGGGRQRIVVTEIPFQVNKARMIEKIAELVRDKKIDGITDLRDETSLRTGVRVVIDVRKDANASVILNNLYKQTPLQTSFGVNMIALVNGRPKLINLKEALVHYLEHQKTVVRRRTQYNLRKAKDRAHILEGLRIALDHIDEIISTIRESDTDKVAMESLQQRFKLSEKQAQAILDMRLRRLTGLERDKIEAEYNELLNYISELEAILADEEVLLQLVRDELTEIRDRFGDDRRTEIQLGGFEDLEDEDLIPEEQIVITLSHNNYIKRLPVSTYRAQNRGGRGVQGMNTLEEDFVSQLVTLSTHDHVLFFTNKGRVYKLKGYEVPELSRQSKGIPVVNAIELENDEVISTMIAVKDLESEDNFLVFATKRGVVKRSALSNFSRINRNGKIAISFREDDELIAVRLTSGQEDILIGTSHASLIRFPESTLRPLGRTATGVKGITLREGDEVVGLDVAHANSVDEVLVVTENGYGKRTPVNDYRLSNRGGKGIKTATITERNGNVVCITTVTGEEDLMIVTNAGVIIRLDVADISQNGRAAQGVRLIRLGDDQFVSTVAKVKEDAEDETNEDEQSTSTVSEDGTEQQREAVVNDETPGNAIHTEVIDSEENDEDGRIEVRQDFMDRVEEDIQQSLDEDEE

Consider `COc1c(-c2ccc3c(c2)CNC3)ccc2c(=O)c3c(=O)[nH]sc3n(C3CC3)c12`, for which it took 2 µg/mL (≈ 4.93 µM) to inhibit growth in the series on Staphylococcus aureus [1] (MIC). Also, the CC50 (usually the concentration giving 50% cytotoxicity) at 72 h in [2] came to 97 µM.
For `COc1c(-c2ccc3c(c2)CCNC3)c(F)cc2c(=O)c3c(=O)[nH]sc3n(C3CC3)c12`, in that order: 2 µg/mL (≈ 4.57 µM) and 57 µM.
`COc1c(-c2cc(C)nc(C)c2)ccc2c(=O)c3c(=O)[nH]sc3n(C3CC3)c12`: the MIC (usually the least concentration at which growth counts as inhibited) against Staphylococcus aureus [1] came to 1 µg/mL (≈ 2.54 µM). For the same molecule, in [2], the CC50 at 72 h is greater than 100 µM.
For `Cc1cc(-c2nc3c(cc2F)c(=O)c2c(=O)[nH]sc2n3C2CC2)cc(C)n1`, in that order: 64 µg/mL (≈ 167 µM) and greater than 100 µM.
For `COc1c(-c2ccc3c(c2)CNC3)c(F)cc2c(=O)c3c(=O)[nH]sc3n(C3CC3)c12`, the values for the MIC against Staphylococcus aureus [1], against Staphylococcus aureus [5] and against Staphylococcus aureus [6] were 0.5 µg/mL (≈ 1.18 µM), 0.008 µg/mL (≈ 0.0189 µM) and 0.5 µg/mL (≈ 1.18 µM), respectively. The MIC50 against Staphylococcus aureus [1] and against Staphylococcus aureus [3] was 0.5 µg/mL (≈ 1.18 µM) each time. In addition, the MIC90 (commonly the lowest concentration that inhibits either 90% of growth or 90% of the strains tested, depending on the study) amounted to 2 µg/mL (≈ 4.72 µM) against Staphylococcus aureus [1] and 1 µg/mL (≈ 2.36 µM) in the series on Staphylococcus aureus [3]. The figures for the CC50 at 72 h in series [2] and in series [7] were 19 µM and 35 µM, respectively. Besides, the IC50 (as a rule, the midpoint of a concentration-inhibition curve) in series [4] worked out at 0.1 µM; against DNA gyrase, 2 µM. The molecule also gave a CC50 in the series with Hepatocyte of 75 µM. For the same molecule, the EC2 in series [8] was 75 µM.
As for `C[C@H]1COc2c(N3CCN(C)CC3)c(F)cc3c(=O)c(C(=O)O)cn1c23.C[C@H]1COc2c(N3CCN(C)CC3)c(F)cc3c(=O)c(C(=O)O)cn1c23.O` [LEVOFLOXACIN], in the series with Staphylococcus aureus [1], the MIC50 (in general, the lowest concentration that inhibits either 50% of growth or 50% of the strains tested, depending on the study) was greater than 16 µg/mL. In addition, in the series on Staphylococcus aureus [3], the MIC50 was 16 µg/mL and the MIC90 is greater than 16 µg/mL. Also, in the series with Staphylococcus aureus [9], it took 16 µg/mL to inhibit growth (MIC).
In the series on Staphylococcus aureus [1], `CC(=O)NC[C@H]1CN(c2ccc(N3CCOCC3)c(F)c2)C(=O)O1` [LINEZOLID] displayed an MIC50 of 2 µg/mL (≈ 5.93 µM) and an MIC90 of 2 µg/mL (≈ 5.93 µM). In the series with Staphylococcus aureus [3], this molecule returned an MIC50 of 2 µg/mL (≈ 5.93 µM) and an MIC90 of 2 µg/mL (≈ 5.93 µM). In addition, the MIC in the series with Staphylococcus aureus [9] was greater than 16 µg/mL. In the series on Staphylococcus aureus [10], this molecule registered a Log10 cfu of 0.2.
In the case of `CO/N=C1\CN(c2nc3c(cc2F)c(=O)c(C(=O)O)cn3C2CC2)CC1CN` (stereo unspecified) [GEMIFLOXACIN], the figures for the MIC against Staphylococcus aureus [1], against Staphylococcus aureus [5] and in the series with Staphylococcus aureus [6] were 2 µg/mL (≈ 5.14 µM), 0.03 µg/mL (≈ 0.077 µM) and 4 µg/mL (≈ 10.3 µM), respectively. Also, the CC50 at 72 h in series [2] worked out at 46 µM; in [7] it was 35 µM. Also, the figures for the IC50 (in series [4]; at DNA gyrase) were 0.3 µM and 5.6 µM, respectively. The CC50 in the series on Hepatocyte was greater than 100 µM. The EC2 in series [8] is greater than 150 µM.
In the series with Staphylococcus aureus [1], `COc1c(-c2ccc3c(c2)CCN(C)C3)ccc2c(=O)c3c(=O)[nH]sc3n(C3CC3)c12` had an MIC of 8 µg/mL (≈ 18.5 µM). This molecule also registered a CC50 at 72 h in [2] greater than 100 µM.
For `O=c1[nH]sc2c1c(=O)c1cc(F)c(-c3ccc4c(c3)CCNC4)cc1n2C1CC1`, in that order: 2 µg/mL (≈ 4.91 µM) and 7 µM.
The molecule `COc1c(-c2ccc3c(c2)CCN(C)C3)c(F)cc2c(=O)c3c(=O)[nH]sc3n(C3CC3)c12` displayed an MIC against Staphylococcus aureus [1] of 4 µg/mL (≈ 8.86 µM). Besides, in series [2], the CC50 at 72 h worked out at 61 µM.
As for `O=c1[nH]sc2c1c(=O)c1cc(F)c(-c3ccncc3)nc1n2C1CC1`, in the series with Staphylococcus aureus [1], it took 2 µg/mL (≈ 5.64 µM) to inhibit growth (MIC). The molecule also had a CC50 at 72 h in series [2] greater than 100 µM.
Consider `O=C(O)c1cn(C2CC2)c2cc(N3CCNCC3)c(F)cc2c1=O` [CIPROFLOXACIN], for which the values for the MIC against Staphylococcus aureus [1] and in the series on Staphylococcus aureus [5] were 32 µg/mL (≈ 96.6 µM) and 0.25 µg/mL (≈ 0.754 µM), respectively. Moreover, the CC50 at 72 h in [2] and in series [7] was greater than 100 µM in each case. In series [4], the IC50 was 1 µM. Also, in [8], the EC2 is greater than 150 µM.
`O=c1[nH]sc2c1c(=O)c1cc(F)c(-c3ccc4c(c3)CNC4)cc1n2C1CC1`: the MIC in the series with Staphylococcus aureus [1] was found to be 2 µg/mL (≈ 5.08 µM). The cytotoxic concentration (CC50) at 72 h in series [2] came out at 8 µM.
